Source: publication PMC9227994, “Evaluation of the Intestinal Permeability of Rosmarinic Acid from Thunbergia laurifolia Leaf Water Extract in a Caco-2 Cell Model” (Molecules, 2022)
“Also recorded” adds a separate entry of the source. Like-named read-outs stand apart in the source and are kept apart here.

Experiments:
[1] = Stability of RA in HBSS (pH 7.4) at 37 °C for 2 h; assay type: physicochemical; conditions: HBSS pH 7.4, 37 °C, TL extract 250 µg/mL equivalent to pure RA 3.267 µg/mL
Description: The stability of RA in the TL extract of 250 µg/mL, which was equivalent to pure RA of 3.267 µg/mL in HBSS solution was determined. The TL extracts and RA were dissolved in HBSS solution (pH 7.4) and incubated at 37 °C for 2 h according to the same conditions as in the transport experiment. The contents of the RA as in TL extract and pure compound were measured for stability tests using HPLC. Their RA remains before and after incubation were calculated and expressed as a percentage of RA.

[2] = cited from earlier work
Caco-2 cells [3] = assay: Cytotoxicity test, MTT assay; assay type: cell-based, human; conditions: concentrations below 500 µg/mL, 24 h
Description: (§1) Cell viability of TL extracts and RA on Caco-2 cells was determined using MTT following modified assay. Caco-2 cells were seeded in 96-well plates at a density of 2 × 10^4 cells/well and cultured at 37 °C and 5% CO2 for 24 h. TL extracts and RA were dissolved in 50% DMSO and diluted with complete DMEM medium containing 0.1% DMSO in the culture medium. The tested compounds were diluted with medium at a concentration range of 1–1000 µg/mL for 24 h exposure experiment. After removal of the medium, the cells were washed with PBS and incubated with 50 µL of 0.5% MTT solution for 2 h at 37 °C and 5% CO2. A total of 50 μL of DMSO was put into each well to dissolve the formazan crystals. The absorbance was detected using a microplate reader at 590 nm. The percentage of cell viability was calculated according to the following Equation (1):(1) % Cell viability=A (sample)−A (blank)/A (control)−A (blank)×100 where A (sample) is absorbance value of sample; A (blank) is absorbance value of blank, and A (negative control) is absorbance value of control (cells). The experiment was performed in three replicates, and the concentration with a viability of more than 90% was chosen for evaluation in monolayer transport experiments as nontoxic to cells.

[4] = Cytotoxicity test, MTT assay; assay type: cell-based, human; conditions: human, Caco-2 cells, 1000 µg/mL, read-out: cell viability
Description: as §1

Caco-2 cell monolayers = assay: Transepithelial transport (permeability) across Caco-2 cell monolayers, HPLC-PDA, with or without β-glucuronidase/sulfatase deconjugation; assay type: in vitro ADME, human; conditions: for Papp (A-B) relative to B-A direction: after deconjugation; for ER (after Deconjugation): Papp (B-A)/Papp (A-B)
Description: (§2) Caco-2 cells (ATCC no. HTB-37) were obtained from the American Type Culture Collection (Rockville, MD, USA) and cultured in DMEM containing […] sodium pyruvate, 20% fetal bovine serum, and 10,000 U/mL penicillin and 10,000 ug/mL streptomycin. Cell culture was maintained at 37 °C in a humidified atmosphere of 5% CO2. On achieving 80–90% confluence, Caco-2 cells were harvested using 0.25% trypsin–EDTA solution and mixed with complete DMEM medium. All cells were used for transport experiments between passages 30 and 40. The integrity of the Caco-2 cell monolayer in the transwell plates was evaluated by measuring transepithelial electrical resistance (TEER) across the monolayers using Millicell-ERS VoltOhm Meter (Millipore, Temecula, CA, USA). […] A (cm^2) is the area of the insert, 1.12 cm^2. […] The culture medium in inserts and plates was changed every 2–3 days for both A and B sides. All cells were used for transport experiments on days 19–21 postseeding. Before starting the transport experiment, the inserts were washed twice and equilibrated with transport buffer (HBSS containing […] HEPES, pH 7.4) for 30 min. Sample solutions of TL extract and RA were prepared and diluted in HBSS to the desired final concentrations. For the transport study of TL extract and RA across Caco-2 cell, sample solutions were added on donor chamber, 400 µL on A side or 1200 µL on B side. The equal volumes of transport buffer were replaced in the receiving chambers. The RA transport in samples was assessed either in A-B or B-A direction across Caco-2 cell monolayers. The plates were incubated at 37 °C for 120 min with gentle shaking at 100 rpm. The solutions of 200 µL on A side and 600 µL on B side were collected at the selected times of 30, 60, 90, and 120 min and immediately replaced with an equal volume of transport buffer to maintain the total volume in receiving chamber. Samples were stored at −80°C until analysis. The amount of transported RA in samples and reference compound was calculated using HPLC system according to the standard curve. β-glucuronidase/sulfatase (Type H-2 from Helix pomatia, 85 units/L of glucuronidase, and 7.5 units/L of sulfatase, Sigma-Aldrich Co., St. Louis, MO, USA) was added to collected samples, which were obtained from B-A solutions at 30, 60, 90, and 120 min, in a ratio of 1:20 and incubated at 37 °C for 4 h to release the parent compounds. These samples from both sides were then injected directly and analyzed for RA by HPLC. The relationship of Q (cumulative permeated amount; μg) versus time, was calculated with the following Equation (3):(3) Q=CnV+∑i=1n−1CiS where Cn is concentration of RA determined at nth sampling interval; V is volume of individual side, ∑i=1n−1Ci is sum of concentration of RA determined at sampling intervals 1 through n − 1, and S is volume of sampling aliquot The Papp (unit: cm/s) was determined and calculated from the amount of compound permeated per time by the following Equation (4):(4) Papp=(dQ/dt/C0×A) where dQ/dt is the steady-state flux of test compound across the cell monolayer in the receiver chamber (µg/min); C0 is the initial concentration in the donor (A or B side) chamber (µg/mL), and A is the surface area of the cell monolayer (cm^2). The membrane area (cm^2) of the insert is 1.12 cm^2. The ER was determined by calculating the ratio of Papp (B-A) versus Papp (A-B) as the following Equation (5):(5) ER=Papp (B-A)/Papp (A-B) where Papp (B-A) is the apparent permeability coefficient value in B-A direction, and Papp (A-B) is the permeability coefficient value in A-B direction. Basolateral recovery (%) was calculated as the amount of test compound transported through the Caco-2 cell monolayer to the B side and remaining on the A side at the end of the experiment divided by the initial amount on the A side.

[5] = as above; assay type: in vitro ADME, human; conditions: human, after β-glucuronidase/sulfatase
Description: as §2

Caco-2 cells [6] = tested on: Caco-2 cells; parameters: method as in PMID 15784988; conditions: cited from earlier work
[7] = parameters: method as in doi:10.1039/C6RA28237G; conditions: rats, cited from earlier work
[8] = pure RA 3.267 µg/mL, after β-glucuronidase/sulfatase, listed as RA in pure RA

O=C(/C=C/c1ccc(O)c(O)c1)O[C@H](Cc1ccc(O)c(O)c1)C(=O)O [RA, Rosmarinic acid]
RA stability in HBSS [1]: 91% | logarithm of octanol–water partition coefficient (logP) [2]: 1.626 | partition coefficient (log Kow) [2]: 1.82 | Cytotoxicity to Caco-2 cells (Caco-2 cells [3]): nontoxic | viability at 24 h, 1000 µg/mL [4]: 85% | efflux ratio (ER), overall (Caco-2 cell monolayers; all concentrations, below 2 taken as no active efflux): less than 2 | Papp (A-B) relative to B-A direction (Caco-2 cell monolayers; pure RA 3.267 µg/mL): 2.02 fold | ER (after Deconjugation) (Caco-2 cell monolayers; pure RA 3.267 µg/mL): 0.5 | Papp A-B Direction (after Deconjugation) (Caco-2 cell monolayers; [8]): 41.2 ± 2.3 × 10^−6 cm/s | Papp B-A Direction (after Deconjugation) (Caco-2 cell monolayers; [8]): 20.4 ± 5.2 × 10^−6 cm/s | Papp (A-B) relative to B-A direction (Caco-2 cell monolayers; pure RA 6.808 µg/mL): 3.67 fold | ER (after Deconjugation) (Caco-2 cell monolayers; pure RA 6.808 µg/mL): 0.3 | Papp A-B Direction (after Deconjugation) (Caco-2 cell monolayers; pure RA 6.808 µg/mL, after β-glucuronidase/sulfatase, listed as RA in pure RA): 22.9 ± 1.0 × 10^−6 cm/s | Papp values before deconjugation, A-B and B-A directions (Caco-2 cell monolayers; pure RA, both concentrations, both directions): could not be detected; also recorded: not detectable | Papp A→B at 120 min, 3.267 µg/mL ([5]; Caco-2, pH 7.4, pure RA 3.267 µg/mL, read-out: Papp A-B Direction (after Deconjugation)): 41.2 ± 2.29 ×10⁻⁶ cm/s | Papp B→A at 120 min, 3.267 µg/mL ([5]; Caco-2, pH 7.4, pure RA 3.267 µg/mL, read-out: Papp B-A Direction (after Deconjugation)): 20.4 ± 5.16 ×10⁻⁶ cm/s | Papp A→B at 120 min, 6.808 µg/mL ([5]; Caco-2, pH 7.4, pure RA 6.808 µg/mL, read-out: Papp A-B Direction (after Deconjugation)): 22.9 ± 0.97 ×10⁻⁶ cm/s | Papp B→A at 120 min, 6.808 µg/mL ([5]; Caco-2, pH 7.4, pure RA 6.808 µg/mL, read-out: Papp B-A Direction (after Deconjugation)): 6.2 ± 0.2 ×10⁻⁶ cm/s | RA absorbed in Caco-2 cells (Caco-2 cells [6]): 0.03–0.06% | oral absolute BA ([7]; single oral dose 12.5 mg/kg): 1.69% | oral absolute BA ([7]; single oral dose 25 mg/kg): 1.28% | oral absolute BA ([7]; single oral dose 50 mg/kg): 0.91%
